Consider four molecules from patent US20240376081A1, “POLYMORPH AND APPLICATION OF PYRIMIDINE DERIVATIVE AND PHARMACEUTICALLY ACCEPTABLE SALT THEREOF” (SHANGHAI HAIYAN PHARMACEUTICAL TECHNOLOGY CO., LTD., priority 2021, published 2024).

Where two headings read alike, the source gives them in different places.

A short description of series [1]: Dynamic Vapor Sorption (DVS). In kind it is physicochemical.
Series [2] can be described thus: Mixing and shaking in solvents, XRPD test. In kind it is physicochemical. The source says: […] After centrifugation, the supernatant was discarded, and the solids were placed in an oven to dryness and subjected to the XRPD test.
Series [3] can be described thus: Crystal competition experiment, XRPD. The format is physicochemical. The following applies: mixed forms I, IV, V, VI, VII shaken in different solvents for 24 h. The procedure:
In order to detect the stablest crystal form of Compound X, crystalline competition experiments were carried out. 10 mg of free alkali crystal I, free alkali crystal IV, free alkali crystal form V, free alkali crystal form VI, and free alkali crystal form VII were weighed, respectively, and mixed thoroughly. 20 mg of the mixed crystal was weighed in a glass vial, to which 1 mL of solvent in Table 14 was added respectively, and the resultant was mixed and shaken at room temperature for 24 h, and centrifugated. The precipitate was taken, dried and then measured by XRPD.

Series [4] in a line: Stability experiments of free alkali crystal form I, XRPD. The format is physicochemical. The settings on record: 40° C., 75% RH, lid open; 1 week, 2 weeks, 1 month, 2 months, 4 months. The source says: Samples were taken at 1 week, 2 weeks, 1 month, 2 months, and 4 months for XRPD test, respectively.
Series [5] can be described thus: In vivo pharmacokinetics in mice (LC/MS/MS plasma concentration). The following applies: male, ICR, mouse; for clearance: read-out: Clearance CLz. The source says:
The LC/MS/MS method was applied to determine the medicament concentration in plasma at different moments after intravenous administration and oral gavage administration of Compound X of the present application in mice, respectively, to study the pharmacokinetic behavior of Compound X of the present application in mice, and to evaluate its pharmacokinetic characteristics.
Test animals: healthy adult male ICR mice (weighing from 25 g to 40 g, 12 mice, free to drink and eat in the intravenous injection group, fasted overnight in the gavage group, and free to drink and eat 4 h after the administration of the medicament), supplied by Beijing Viton Lever Laboratory Animal Technology Co., Ltd.
Mode of administration and dosage: animals meeting the experimental requirements were selected and weighed and labeled before administration. ICR mice were administered by tail vein (2 mg/kg, 5% DMSO, pH 4.5 20% Captisol) and by gavage (10 mg/kg, 5% DMSO, pH 4.5 20% Captisol).
Blood sample collection: Prior to blood sample collection, mice were bound and approximately […] of blood was collected from the jugular vein of each administered mouse at predetermined blood collection time points (i.v. administration: Blood was collected at 9 time points: 0.083 h, 0.25 h, 0.5 h, 1 h, 2 h, 4 h, 6 h, 7.5 h, and 24 h, respectively, after administration; and gavage administration: Blood was collected at 9 time points: 0.083 h, 0.25 h, 0.5 h, 1 h, 2 h, 4 h, 6 h, 7.5 h, and 24 h, respectively, after administration). The blood was transferred to 1.5 mL tubes preloaded with K2EDTA, and the blood plasma was separated by centrifugation for 4 min (8,000 rpm, 4° C.), which was performed within 15 min after the collection. All samples were stored in a refrigerator at −20° C. until sample analysis. LC/MS/MS method was applied to determine the medicament concentration.

Series [6] relates to mouse colon cancer MC38(#22)-hpd-L1. Nature of the series: In vivo potency assay in colon cancer MC38(#22)-hpd-L1 tumor bearing mice. On the set-up: species or system C57BL/6 mice. The settings on record: twice a day for 22 days. The procedure:
Experimental Protocol: In this test example, tumor bearing mice subcutaneously transplanted with mouse colon cancer MC38(#22)-hpd-L1 was investigated. After administration of Compound X of the present application via the oral administration, the in vivo efficacy of Compound X on colon cancer MC38(#22)-hpd-L1 tumor bearing mice were tested.
Experimental materials: C57BL/6 mice (female); mouse colon cancer MC38(#22)-hpd-L1 cells (Shanghai Jiao Tong University cell bank), cultured in vitro in monolayer, culture conditions were using RPMI-1640 medium containing 10/% fetal bovine serum, 37° C. 5% CO2 incubator. The cells were passaged by conventional digestion treatment with trypsin-EDTA. When the cells were in the exponential growth phase with 80% to 90% saturation, the cells were harvested and counted.
Compound Preparation: The compound was weighed and added to the solvent (40% captisol in acetate buffer, pH 3.8) to prepare a 10 mg/mL sample. 75 μL of Tecentriq solution (60 mg/mL) was taken and added to 8.925 mL of phosphate buffer solution (PBS) to make a 0.5 mg/mL phosphate solution (phosphate buffer).
Experimental Operation: Cells were resuspended in the phosphate buffer at a density of 5×10^6 cells/mL. 0.1 mL of PBS (containing 5×10^5 MC38(#22)-hpd-L1 cells) was subcutaneously inoculated into the right back of each mouse. On the day of inoculation, the mice were randomized according to their body weights into groups of 10 mice each, and dosing was begun twice a day for 22 days. The animals were weighed daily and monitored for health throughout the experimental period. Tumor diameters were measured twice a week using vernier calipers.
Tumor volume V was calculated as V=0.5×a×b^2, with a and b denoting the long and short diameters of the tumor, respectively.
The tumor suppression efficacy of the compound was evaluated by relative tumor proliferation rate T/C (%). Relative tumor proliferation rate T/C (%)=Vt/Vc×100% (Vt: mean tumor volume of the treatment group; Vc: mean tumor volume of the negative control group). Vt and Vc were data taken from the same day.

Series [7] is described as follows: Differential scanning calorimetry (DSC), crystal form stability. The format is physicochemical. The following applies: may be transformed into free alkali crystal form I during warming up. The source says: As one of the embodiments, DSC plots in some embodiments of the present application were collected on a DISCOVERY DSC25 differential scanning calorimeter with the test parameters shown in Table 11.
For orientation: Differential scanning calorimetry records heat flow against a reference as temperature is scanned.

The target of a further series is A2A receptor (Homo sapiens (Human), UniProt P29274). The series is described as follows: Inhibitory activity on A2A receptor, cAMP assay in CHO-K1/ADORA2A/Gα15 cells (Test Example 1). The format is cell-based. The following applies: NECA 50 nM. The procedure:
(§1) CHO-K1/ADORA2A/Gα15 (GenScript, M00246) and CHO-K1/ADORA2B/Gα15 (GenScript, M00329) cells were cultured in Ham's F-12 (Gibco, 31765092) medium with medium conditions containing 10% FBS, 200 μg/mL Zeocin (bleomycin) and 100 μg/mL Hygromycin B (thaumatin B) or 10% FBS, 400 μg/mL G418 and 100 μg/mL Hygromycin B. Details of the culture conditions are described in the corresponding instructions.
(In general: Cyclic AMP is a second messenger, typically raised through Gs and lowered through Gi signalling.)

The target in the next series is A2B receptor (Homo sapiens (Human), UniProt P29275). The series is described as follows: Inhibitory activity on A2B receptor, cAMP assay in CHO-K1/ADORA2B/Gα15 cells (Test Example 1). The settings on record: NECA 10 nM. In kind it is cell-based. The procedure: as §1
Where [8] appears, read: intravenous (tail vein) 2 mg/kg, read-out: Area under the curve AUC0-t.
Where [9] appears, read: intravenous (tail vein) 2 mg/kg.
Where [10] appears, read: po, gavage 10 mg/kg, read-out: Area under the curve AUClast.

Sequence of A2A receptor (P29274 whole entry): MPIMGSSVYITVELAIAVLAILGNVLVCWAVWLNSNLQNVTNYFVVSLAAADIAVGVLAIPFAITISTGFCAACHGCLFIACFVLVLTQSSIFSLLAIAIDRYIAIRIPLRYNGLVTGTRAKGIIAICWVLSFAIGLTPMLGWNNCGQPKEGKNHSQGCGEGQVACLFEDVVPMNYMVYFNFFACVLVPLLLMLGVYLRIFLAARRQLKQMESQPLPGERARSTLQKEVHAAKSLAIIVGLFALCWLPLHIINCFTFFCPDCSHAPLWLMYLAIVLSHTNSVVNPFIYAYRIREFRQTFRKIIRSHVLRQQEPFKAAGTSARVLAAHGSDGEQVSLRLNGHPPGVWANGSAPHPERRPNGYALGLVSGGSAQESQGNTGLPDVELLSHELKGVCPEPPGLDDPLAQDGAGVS
Sequence of A2B receptor (P29275 whole entry): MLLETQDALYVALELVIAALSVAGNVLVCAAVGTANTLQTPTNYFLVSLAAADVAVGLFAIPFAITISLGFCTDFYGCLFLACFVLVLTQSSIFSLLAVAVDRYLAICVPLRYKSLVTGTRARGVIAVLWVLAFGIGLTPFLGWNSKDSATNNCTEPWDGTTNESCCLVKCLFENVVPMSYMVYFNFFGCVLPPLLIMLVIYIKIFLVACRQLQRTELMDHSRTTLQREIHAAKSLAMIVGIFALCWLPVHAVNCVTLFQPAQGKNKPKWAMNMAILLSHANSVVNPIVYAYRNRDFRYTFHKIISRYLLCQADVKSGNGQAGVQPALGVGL

With `Cc1c(C#N)cccc1-c1nc(N)c(F)c(-c2cn(Cc3cccc(C(C)(C)O)n3)nn2)n1` [free alkali crystal form I, 3-(4-amino-5-fluoro-6-(1-((6-(2-hydroxypropan-2-yl)pyridin-2-yl)methyl)-1H-1,2,3-triazol-4-yl)pyrimidin-2-yl)-2-methylbenzonitrile], the hygroscopicity result in [1] (DVS, 0% to 80% RH at 25° C.) is “almost no hygroscopicity”. In series [1] (relative humidity from 0% to 80% RH at 25° C.), the “change in mass due to absorption” value is reported as “less than 0.2%”. Further, the “Crystal form after mixing and shaking” value is listed as “Crystal form I” in [2] (50% Ethanol, 50° C., 1 day); “Crystal form I” in series [2] (50% Ethanol, RT, 1 day); “Crystal form I” in [2] (50% Ethanol, RT, 7 days); “Crystal form I” in [2] (Ethanol, 50° C., 1 day); “Crystal form I” in series [2] (Ethanol, RT, 1 day); “Crystal form I” in series [2] (Ethanol, RT, 7 days). Also, the “Crystal form after mixing and shaking” value in series [2] (Ethyl acetate, 50° C., 1 day) is “Crystal form I”; in series [2] (Ethyl acetate, RT, 1 day) it was “Crystal form I”; in series [2] (Ethyl acetate, RT, 7 days), “Crystal form I”; in series [2] (Isopropanol, 50° C., 1 day), “Crystal form I”; in series [2] (Isopropanol, RT, 1 day), “Crystal form I”; in series [2] (Isopropanol, RT, 7 days), “Crystal form I”. In addition, the “Crystal form after mixing and shaking” value in series [2] (Methyl tert-butyl ether, 50° C., 1 day) is “Crystal form I”; in series [2] (Methyl tert-butyl ether, RT, 1 day), “Crystal form I”; in [2] (Methyl tert-butyl ether, RT, 7 days) it was “Crystal form I”; in series [2] (Water, 50° C., 1 day), “Crystal form I”; in series [2] (Water, RT, 1 day), “Crystal form I”; in series [2] (Water, RT, 7 days), “Crystal form I”. Moreover, the “Crystal form after mixing and shaking” value is recorded as “Crystal form I” in series [2] (n-Heptane, 50° C., 1 day); “Crystal form I” in series [2] (n-Heptane, RT, 1 day); “Crystal form I” in [2] (n-Heptane, RT, 7 days). Moreover, the “change of crystal form after mixing and shaking” value in series [2] (any of the seven solvents shown) is reported as “did not change”. The “stablest crystal form determined by competition” value in series [3] is “stable crystal form”. Moreover, in [4], the “physical stability (XRPD)” value was “physically stable”.

Consider `Cc1c(C#N)cccc1-c1cc(-c2cn(Cc3cccc(C(C)(C)O)n3)nn2)nc(N)n1` [Compound D1, reference compound], for which the AUC(0-t) in series [5] (setting [8]) is 1.65 µg·h/mL. For the same molecule, the clearance in series [5] (setting [9]) is 1.14 L/h/kg. The peak level in [5] (po, gavage 10 mg/kg) (Cmax) was 5.96 µg/mL. Besides, in series [5] (setting [10]), the AUC(0-t) is 10.3 µg·h/mL. Moreover, in [6] (100 mg/kg oral), the “Relative tumor proliferation rate T/C (%)” value stood at 75.8% and the Tumor volume was 902 mm^3.

Take `Cc1c(C#N)cccc1-c1nc(N)c(F)c(-c2cn(Cc3cccc(C(C)(C)O)n3)nn2)n1` [free alkali crystal form IV, 3-(4-amino-5-fluoro-6-(1-((6-(2-hydroxypropan-2-yl)pyridin-2-yl)methyl)-1H-1,2,3-triazol-4-yl)pyrimidin-2-yl)-2-methylbenzonitrile]: the “crystal form stability from DSC plot” value in [7] is “sub-stable crystal form”.

`Cc1c(C#N)cccc1-c1nc(N)c(F)c(-c2cn(Cc3cccc(C(C)(C)O)n3)nn2)n1` [Compound X, 3-(4-amino-5-fluoro-6-(1-((6-(2-hydroxypropan-2-yl)pyridin-2-yl)methyl)-1H-1,2,3-triazol-4-yl)pyrimidin-2-yl)-2-methylbenzonitrile]: the IC50 on A2A receptor came to 0.001 mM; on A2B receptor it was 0.003 mM. In addition, the AUC(0-t) in series [5] (setting [8]) amounted to 2.25 µg·h/mL; in series [5] (setting [10]), 10.4 µg·h/mL. Moreover, the clearance in [5] (setting [9]) was 0.882 L/h/kg. The Cmax in [5] (po, gavage 10 mg/kg) was 8.73 µg/mL. Also, the “Relative tumor proliferation rate T/C (%)” value was found to be 75.5% in series [6] (10 mg/kg oral), 34.0% in series [6] (30 mg/kg oral) and 24.0% in series [6] (100 mg/kg oral). In addition, the values for the Tumor volume in [6] (10 mg/kg oral), in series [6] (30 mg/kg oral) and in series [6] (100 mg/kg oral) were 899 mm^3, 405 mm^3 and 286 mm^3, respectively.

A word on the clearance: it is the rate of elimination divided by the concentration. What is called Cmax is the highest concentration seen after dosing. By IC50 is commonly meant the midpoint of a concentration-inhibition curve. Read a high IC50 as lower potency.
